Measurements reported in article PMC9772450, “Gel-forming antagonist provides a lasting effect on CGRP-induced vasodilation” (Frontiers in Pharmacology, 2022).
pIC50: −log10 of the molar value. Read-outs that look alike come from different tables or passages of the source. Non-standard residues stand in square brackets, D forms with d. Residues, ends and D or L forms follow the SMILES beside them. *: point of attachment. 2Nal = N[C@@H](Cc1ccc2ccccc2c1)C(=O)O; Met(O2) = CS(=O)(=O)CC[C@H](N)C(=O)O; Arg(Me) = CNC(=N)NCCC[C@H](N)C(=O)O; Palmitoyl = CCCCCCCCCCCCCCCC(=O)*; Hyp = O=C(O)[C@@H]1C[C@@H](O)CN1; Orn = NCCC[C@H](N)C(=O)O; Dab = NCC[C@H](N)C(=O)O; Nva = CCC[C@H](N)C(=O)O; βAla = NCCC(=O)O

How the values were obtained:
[1] = target: T1, CLR/RAMP1 receptor (Homo sapiens, UniProt O60894+Q16602); experiment: HitHunter cAMP XS+ CALCRL-RAMP1 cAMP assay, antagonist mode; assay type: cell-based; conditions: for pIC50: CHO-K1 CALCRL-RAMP1 cAMP Hunter cells, human β-CGRP at EC80 (0.37nM), 30 min pre-incubation, 10-point curve from 10 μM, 3-fold dilutions, duplicate samples, assayed side-by-side once, read-out: IC50 for antagonizing CGRP-induced CLR/RAMP1 signaling; for Maximum response: antagonist mode, β-CGRP at EC80, 10-point curve, duplicate; for Antagonistic activity toward CGRP-mediated CLR/RAMP1 signaling compared to ADE651: result in words
T1 construct: host or cells: CHO-K1 (cAMP Hunter cell line)
Procedure: The assay of the antagonistic activity of analogs was conducted by the Eurofins Discoverx using the HitHunter cAMP XS + assay as described earlier ([Bradley and McLoughlin, 2009]; [Chang and Hsu, 2019]). The dose-dependent inhibitory effect of antagonists was studied in duplicate, at 10 different concentrations. Determination of the half-maximal inhibitory concentration (IC50) was performed using a 10-point dose-response curve. The starting concentration was 10 μM, and it was serially diluted 3-fold, in DMSO. […] Using the Hit Hunter® assay (CALCRL-RAMP1 cAMP assay in the antagonist mode; https://www.discoverx.com/products/cell-line/cho-k1-calcrl-ramp1-gs-cell-line-95-0164c2), the eight compounds in Table 1 were assayed side-by-side once, and the IC50 was derived based on the standard assay of duplicate samples of a ten-point curve. In this homogenous, non-imaging assay, the activation of CLR/RAMP1 signaling was evaluated using the Enzyme Fragment Complementation (EFC) technology with β-galactosidase (β-Gal) as the functional reporter. The enzyme was split into two complementary portions: an enzyme acceptor and an enzyme donor. The enzyme donor is fused to cAMP and it competes with cAMP generated by cells
For binding to a cAMP-specific antibody. Active β-Gal is formed by complementation of exogenous enzyme acceptor to any unbound enzyme donor-cAMP. The active enzyme then converted a chemiluminescent substrate to generate a signal. Briefly, cAMP Hunter cell lines with the select receptor were expanded from freezer stocks ([Bradley and McLoughlin, 2009]), and cells were seeded in a total volume of 20 μL into 384-well microplates and incubated at 37°C for the appropriate time. […] Intermediate dilution of samples was performed to generate 4X sample in the assay buffer. Before the assay, media was aspirated from cells and replaced with 10 μL 1:1 HBSS/Hepes:cAMP XS + Ab reagent, and 5 μL of 4X compound was added to the cells and incubated for 30 min. […] Vehicle concentration was 1%.
The chemiluminescent signal was read with a PerkinElmer chemiluminescent plate reader. The compound activity was analyzed using a CBIS data analysis suite (ChemInnovation, CA). The percentage inhibition was calculated using the following formula: % Inhibition = 100% x (1 - (mean RLU of test sample - mean RLU of vehicle control)/(mean RLU of EC80 control - mean RLU of vehicle control)). Data were normalized to the maximal and minimal response observed in the presence of EC80 agonist and vehicle.

[2] = Visual (tube-tapping) assay of gel-forming capability and solubility; assay type: physicochemical; design: key to Gel-forming ability: Y: can form a liquid gel; N: lacks the ability to efficiently form a liquid gel; conditions: for Gel-forming ability: visual inspection of 11% peptide solutions, tube-tapping, 20 min after mixing
Procedure: To evaluate the ability of peptides to form gels in situ, we initially determined this tendency qualitatively based on visual examinations of peptide solutions using a tube-tapping method. In addition, we quantitatively determined the viscosity of select peptide solutions using a viscometer (Rheosense Inc; http://www.rheosense.com/products/viscometers) ([Yan and Pochan, 2010]). In the visual assay, aliquots of peptides were dissolved in an aqueous solution (i.e., de-ionized water, saline, or 5% glucose solution). The peptide that dissolved instantly and stayed as a clear solution without obvious macroscopic change in viscosity at 20 min after mixing was considered soluble. If macroscopic particles of peptides remained in the solution at 20 min after mixing, the peptide was considered insoluble.

[3] = cited from earlier work
[4] = Passage of peptide molecules through Centricon filters; assay type: physicochemical; conditions: Centricon 30,000 MW cutoff, 15 min centrifugation; specific EIA; N = 3 per group; result in words
Text: To evaluate whether gel-formation reduces the movement of peptide molecules in solution, we used the Centricon® filters (Millipore) to separate samples and the carriers based on their molecular mass. The sample is monomeric peptides, and the carrier is the self-assembled gel. One milligram aliquots of the peptides were first dissolved as 0.1% solution in 5% glucose, 0.1% solution in saline, 5% solution in 5% glucose, 10% solution in 5% glucose, and 20% solution in 5% glucose. Ten minutes later, the 5%, 10%, and 20% solutions were diluted to the 0.1% level. Aliquots of these solutions were sampled and dispensed into separate Centricon columns (30,000 MW cutoff), and the monomeric peptide and gel molecules were separated by centrifugation for 15 min (2000 x g). The level of peptide in the elutes was determined by specific EIAs (Phoenix Pharmaceuticals Inc.).

T1 sequence (Q16602 23-461): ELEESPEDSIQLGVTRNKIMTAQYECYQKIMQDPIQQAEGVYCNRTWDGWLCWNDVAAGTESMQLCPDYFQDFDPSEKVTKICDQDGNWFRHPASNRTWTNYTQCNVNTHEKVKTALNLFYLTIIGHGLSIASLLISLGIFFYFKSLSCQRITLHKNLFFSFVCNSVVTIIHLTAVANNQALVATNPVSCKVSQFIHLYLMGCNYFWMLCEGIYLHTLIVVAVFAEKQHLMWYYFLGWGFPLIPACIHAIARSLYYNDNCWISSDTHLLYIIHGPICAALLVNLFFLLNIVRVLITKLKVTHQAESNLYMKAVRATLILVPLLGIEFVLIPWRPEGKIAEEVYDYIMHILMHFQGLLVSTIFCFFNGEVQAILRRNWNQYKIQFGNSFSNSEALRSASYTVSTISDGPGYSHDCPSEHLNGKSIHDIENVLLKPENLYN
T1 sequence (O60894 27-148): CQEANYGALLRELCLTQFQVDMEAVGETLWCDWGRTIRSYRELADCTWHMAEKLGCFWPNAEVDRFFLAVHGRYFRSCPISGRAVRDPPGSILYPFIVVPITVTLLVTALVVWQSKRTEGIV

| Maximum response [1] | Gel-forming ability [2] | Molecule | Antagonistic activity toward CGRP-mediated CLR/RAMP1 signaling compared to ADE651 [1] | also measured |
| --- | --- | --- | --- | --- |
| 101 % of positive control | Y | CCCCCCCCCCCCCCCC(=O)N[C@@H](CCCCN)C(=O)N[C@H](C(=O)N[C@@H](CCC(N)=O)C(=O)N[C@@H](CCCCN)C(=O)N[C@@H](CCC)C(=O)N[C@@H](CO)C(=O)N[C@@H](C)C(=O)N1CCC[C@H]1C(=O)N[C@H](C(=O)N[C@@H](CC(=O)O)C(=O)N1CCC[C@H]1C(=O)N[C@@H](CO)C(=O)N[C@@H](CO)C(=O)N1CCC[C@H]1C(=O)N[C@@H](Cc1c[nH]cn1)C(=O)N[C@@H](CO)C(=O)N[C@@H](Cc1ccc(O)cc1)C(N)=O)C(C)C)C(C)C [ADE651C] (Palmitoyl-KVQK[Nva]SAPVDPSSPHSY-NH2) | retained the potent antagonistic activity | pIC50 [1]: 8.89 |
| 100.1 % of positive control | Y | CCCCCCCCCCCCCCCC(=O)N[C@@H](CCCCN)C(=O)N[C@H](C(=O)N[C@@H](CCC(N)=O)C(=O)N[C@@H](CCCCN)C(=O)N[C@@H](Cc1ccc2ccccc2c1)C(=O)N[C@@H](CO)C(=O)N[C@@H](C)C(=O)N1CCC[C@H]1C(=O)N[C@H](C(=O)N[C@@H](CC(=O)O)C(=O)N1CCC[C@H]1C(=O)N[C@@H](CO)C(=O)N[C@@H](CO)C(=O)N1CCC[C@H]1C(=O)N[C@@H](Cc1c[nH]cn1)C(=O)N[C@@H](CO)C(=O)N[C@@H](Cc1ccc(O)cc1)C(N)=O)C(C)C)C(C)C [ADE651H] (Palmitoyl-KVQK[2Nal]SAPVDPSSPHSY-NH2) | significantly reduced antagonistic activity | pIC50 [1]: 7.82 |
| 100.4 % of positive control | Y | CCCCCCCCCCCCCCCC(=O)N[C@@H](CCCCN)C(=O)N[C@H](C(=O)N[C@@H](CCC(N)=O)C(=O)N[C@@H](CCCCN)C(=O)N[C@@H](CCS(C)(=O)=O)C(=O)N[C@@H](CO)C(=O)N[C@@H](C)C(=O)N1CCC[C@H]1C(=O)N[C@H](C(=O)N[C@@H](CC(=O)O)C(=O)N1CCC[C@H]1C(=O)N[C@@H](CO)C(=O)N[C@@H](CO)C(=O)N1CCC[C@H]1C(=O)N[C@@H](Cc1c[nH]cn1)C(=O)N[C@@H](CO)C(=O)N[C@@H](Cc1ccc(O)cc1)C(N)=O)C(C)C)C(C)C [ADE651J] (Palmitoyl-KVQK[Met(O2)]SAPVDPSSPHSY-NH2) | retained the potent antagonistic activity | pIC50 [1]: 9.05 |
|  |  | exenatide: approved peptide therapeutic |  | Volume of distribution ([3]; in vivo): 28.3 L |
|  |  | setmelanotide |  | Volume of distribution ([3]; approved peptide therapeutics): 48.7 L |
|  | Y | CCCCCCCCCCCCCCCC(=O)N[C@@H](CCCCN)C(=O)N[C@H](C(=O)N[C@@H](CCC(N)=O)C(=O)N[C@@H](CCCNC(=N)NC)C(=O)N[C@@H](CC(C)C)C(=O)N[C@@H](CO)C(=O)N[C@@H](C)C(=O)N1CCC[C@H]1C(=O)N[C@H](C(=O)N[C@@H](CC(=O)O)C(=O)N1CCC[C@H]1C(=O)N[C@@H](CO)C(=O)N[C@@H](CO)C(=O)N1CCC[C@H]1C(=O)N[C@@H](Cc1c[nH]cn1)C(=O)N[C@@H](CO)C(=O)N[C@@H](Cc1ccc(O)cc1)C(N)=O)C(C)C)C(C)C [ADE651M] (Palmitoyl-KVQ[Arg(Me)]LSAPVDPSSPHSY-NH2) | retained the potent antagonistic activity |  |
|  |  | abaloparatide: approved peptide therapeutic |  | Volume of distribution ([3]; in vivo): 50.0 L |
|  |  | VGCRFGTCTVQKLAHLWQLMGPAGRQDSAPVDPSSPHSY-NH2 [ADE410] |  | Peptide level in elutes from 0.1, 5, 10 and 20% solution groups [4]: similar; Solubility in 5% glucose solution ([2]; visual): soluble from 0.1% to 20%; Liquid gel formation at 6–20% level ([2]; visual, result in words): does not form a liquid gel |
| 100.5 % of positive control |  | NCCCC[C@H](NC(=O)[C@@H](Cc1cc(Br)c(O)c(Br)c1)NC(=O)N1CCC(N2Cc3ccccc3NC2=O)CC1)C(=O)N1CCN(c2ccncc2)CC1 [BIBN4096, reference compound] |  |  |
|  | N | CCCCCCCCCCCCCCCC(=O)N[C@@H](CCCCN)C(=O)N[C@H](C(=O)N[C@@H](CCC(N)=O)C(=O)N[C@@H](CCCCN)C(=O)NCCC(=O)N[C@@H](CO)C(=O)N[C@@H](C)C(=O)N1CCC[C@H]1C(=O)N[C@H](C(=O)N[C@@H](CC(=O)O)C(=O)N1CCC[C@H]1C(=O)N[C@@H](CO)C(=O)N[C@@H](CO)C(=O)N1CCC[C@H]1C(=O)N[C@@H](Cc1c[nH]cn1)C(=O)N[C@@H](CO)C(=O)N[C@@H](Cc1ccc(O)cc1)C(N)=O)C(C)C)C(C)C [ADE651P] (Palmitoyl-KVQK[βAla]SAPVDPSSPHSY-NH2) |  |  |
|  |  | histrelin |  | Volume of distribution ([3]; in vivo): 58.4 L |
| 99.9 % of positive control | Y | Pal-KVQ-Lys (Pyr)-LSAPVDPSSPHSY-NH2 [ADE651N, ADE651 variant, second lysine substituted with Lys (Pyr)] | retained the potent antagonistic activity |  |
|  | N | CCCCCCCCCCCCCCCC(=O)N[C@@H](CCCCN)C(=O)N[C@H](C(=O)N[C@@H](CCC(N)=O)C(=O)N[C@@H](CCCCN)C(=O)N[C@@H](CCN)C(=O)N[C@@H](CO)C(=O)N[C@@H](C)C(=O)N1CCC[C@H]1C(=O)N[C@H](C(=O)N[C@@H](CC(=O)O)C(=O)N1CCC[C@H]1C(=O)N[C@@H](CO)C(=O)N[C@@H](CO)C(=O)N1CCC[C@H]1C(=O)N[C@@H](Cc1c[nH]cn1)C(=O)N[C@@H](CO)C(=O)N[C@@H](Cc1ccc(O)cc1)C(N)=O)C(C)C)C(C)C [ADE651K] (Palmitoyl-KVQK[Dab]SAPVDPSSPHSY-NH2) |  |  |
|  | N | CCCCCCCCCCCCCCCC(=O)N[C@@H](CCCCN)C(=O)N[C@H](C(=O)N[C@@H](CCC(N)=O)C(=O)N[C@@H](CCCCN)C(=O)N[C@@H](CCCN)C(=O)N[C@@H](CO)C(=O)N[C@@H](C)C(=O)N1CCC[C@H]1C(=O)N[C@H](C(=O)N[C@@H](CC(=O)O)C(=O)N1CCC[C@H]1C(=O)N[C@@H](CO)C(=O)N[C@@H](CO)C(=O)N1CCC[C@H]1C(=O)N[C@@H](Cc1c[nH]cn1)C(=O)N[C@@H](CO)C(=O)N[C@@H](Cc1ccc(O)cc1)C(N)=O)C(C)C)C(C)C [ADE651G] (Palmitoyl-KVQK[Orn]SAPVDPSSPHSY-NH2) |  |  |
|  | N | CCCCCCCCCCCCCCCC(=O)N[C@@H](CCCCN)C(=O)N[C@H](C(=O)N[C@@H](CCC(N)=O)C(=O)N[C@@H](CCCCN)C(=O)N1C[C@H](O)C[C@H]1C(=O)N[C@@H](CO)C(=O)N[C@@H](C)C(=O)N1CCC[C@H]1C(=O)N[C@H](C(=O)N[C@@H](CC(=O)O)C(=O)N1CCC[C@H]1C(=O)N[C@@H](CO)C(=O)N[C@@H](CO)C(=O)N1CCC[C@H]1C(=O)N[C@@H](Cc1c[nH]cn1)C(=O)N[C@@H](CO)C(=O)N[C@@H](Cc1ccc(O)cc1)C(N)=O)C(C)C)C(C)C [ADE651E] (Palmitoyl-KVQK[Hyp]SAPVDPSSPHSY-NH2) |  |  |
